The target of data set [1] is Phosphatidylinositol 4,5-bisphosphate 3-kinase catalytic subunit beta isoform (Homo sapiens, UniProt P42338). Description: Inhibition of PI3Kbeta (unknown origin) using biotin-PIP3 as substrate preincubated for 15 mins followed by substrate addition and measured after 60 mins by fluorescence polarization assay. In general terms: Fluorescence polarisation rises when a labelled molecule tumbles more slowly, as on binding a larger partner.

In data set [2] the target is T1, Phosphatidylinositol 4,5-bisphosphate 3-kinase catalytic subunit delta isoform (Homo sapiens, UniProt O00329).
T1 sequence (O00329 whole entry): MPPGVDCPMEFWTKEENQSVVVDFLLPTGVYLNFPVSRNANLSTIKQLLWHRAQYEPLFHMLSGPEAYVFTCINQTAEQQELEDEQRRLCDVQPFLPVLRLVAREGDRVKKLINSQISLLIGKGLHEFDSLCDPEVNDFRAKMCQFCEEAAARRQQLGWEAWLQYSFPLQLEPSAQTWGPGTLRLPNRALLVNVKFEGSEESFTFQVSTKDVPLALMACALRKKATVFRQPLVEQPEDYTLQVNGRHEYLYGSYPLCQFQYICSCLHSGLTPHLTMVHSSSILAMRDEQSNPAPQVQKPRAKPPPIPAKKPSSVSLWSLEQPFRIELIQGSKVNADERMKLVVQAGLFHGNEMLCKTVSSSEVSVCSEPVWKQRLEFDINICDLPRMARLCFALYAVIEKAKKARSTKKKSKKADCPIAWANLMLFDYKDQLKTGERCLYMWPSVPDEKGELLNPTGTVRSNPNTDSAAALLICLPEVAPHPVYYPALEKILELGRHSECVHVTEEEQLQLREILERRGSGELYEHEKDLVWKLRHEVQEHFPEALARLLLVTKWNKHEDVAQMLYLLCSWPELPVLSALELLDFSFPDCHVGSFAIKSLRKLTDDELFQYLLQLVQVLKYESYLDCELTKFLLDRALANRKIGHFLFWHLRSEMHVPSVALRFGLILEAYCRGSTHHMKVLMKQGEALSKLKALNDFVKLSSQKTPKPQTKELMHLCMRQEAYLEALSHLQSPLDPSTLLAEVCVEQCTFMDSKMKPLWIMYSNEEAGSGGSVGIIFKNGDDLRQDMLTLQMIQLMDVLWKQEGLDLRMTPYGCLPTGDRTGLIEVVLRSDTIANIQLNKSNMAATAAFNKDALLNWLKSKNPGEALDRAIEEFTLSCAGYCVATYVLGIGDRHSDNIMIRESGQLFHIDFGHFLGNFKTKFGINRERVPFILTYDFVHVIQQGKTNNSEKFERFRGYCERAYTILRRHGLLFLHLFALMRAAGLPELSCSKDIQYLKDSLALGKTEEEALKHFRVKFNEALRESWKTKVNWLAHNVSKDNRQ
Description: Inhibition of PI3Kdelta (unknown origin) using biotin-PIP3 as substrate preincubated for 15 mins followed by substrate addition and measured after 60 mins by fluorescence polarization assay

Data set [3] addresses Phosphatidylinositol 4,5-bisphosphate 3-kinase catalytic subunit alpha isoform (Homo sapiens, UniProt P42336).
Description: Inhibition of PI3Kalpha (unknown origin) using biotin-PIP3 as substrate preincubated for 15 mins followed by substrate addition and measured after 60 mins by fluorescence polarization assay
Data set [4] addresses Phosphatidylinositol 4,5-bisphosphate 3-kinase catalytic subunit gamma isoform (Homo sapiens, UniProt P48736).
Description: Inhibition of PI3Kgamma (unknown origin) using biotin-PIP3 as substrate preincubated for 15 mins followed by substrate addition and measured after 60 mins by fluorescence polarization assay
Data set [5] in a line: Lipophilicity, logD of compound at pH 7.4 by HPLC-MS analysis. To be noted: buffer.

For orientation: IC50 means the point on the concentration scale where inhibition reaches its midpoint. Lower therefore signals higher potency. The logD is lipophilicity at a set pH, counting ionised and neutral species. High values mean a more lipophilic compound, low ones a more hydrophilic compound.

Sequence of Phosphatidylinositol 4,5-bisphosphate 3-kinase catalytic subunit beta isoform (P42338 whole entry, canonical isoform): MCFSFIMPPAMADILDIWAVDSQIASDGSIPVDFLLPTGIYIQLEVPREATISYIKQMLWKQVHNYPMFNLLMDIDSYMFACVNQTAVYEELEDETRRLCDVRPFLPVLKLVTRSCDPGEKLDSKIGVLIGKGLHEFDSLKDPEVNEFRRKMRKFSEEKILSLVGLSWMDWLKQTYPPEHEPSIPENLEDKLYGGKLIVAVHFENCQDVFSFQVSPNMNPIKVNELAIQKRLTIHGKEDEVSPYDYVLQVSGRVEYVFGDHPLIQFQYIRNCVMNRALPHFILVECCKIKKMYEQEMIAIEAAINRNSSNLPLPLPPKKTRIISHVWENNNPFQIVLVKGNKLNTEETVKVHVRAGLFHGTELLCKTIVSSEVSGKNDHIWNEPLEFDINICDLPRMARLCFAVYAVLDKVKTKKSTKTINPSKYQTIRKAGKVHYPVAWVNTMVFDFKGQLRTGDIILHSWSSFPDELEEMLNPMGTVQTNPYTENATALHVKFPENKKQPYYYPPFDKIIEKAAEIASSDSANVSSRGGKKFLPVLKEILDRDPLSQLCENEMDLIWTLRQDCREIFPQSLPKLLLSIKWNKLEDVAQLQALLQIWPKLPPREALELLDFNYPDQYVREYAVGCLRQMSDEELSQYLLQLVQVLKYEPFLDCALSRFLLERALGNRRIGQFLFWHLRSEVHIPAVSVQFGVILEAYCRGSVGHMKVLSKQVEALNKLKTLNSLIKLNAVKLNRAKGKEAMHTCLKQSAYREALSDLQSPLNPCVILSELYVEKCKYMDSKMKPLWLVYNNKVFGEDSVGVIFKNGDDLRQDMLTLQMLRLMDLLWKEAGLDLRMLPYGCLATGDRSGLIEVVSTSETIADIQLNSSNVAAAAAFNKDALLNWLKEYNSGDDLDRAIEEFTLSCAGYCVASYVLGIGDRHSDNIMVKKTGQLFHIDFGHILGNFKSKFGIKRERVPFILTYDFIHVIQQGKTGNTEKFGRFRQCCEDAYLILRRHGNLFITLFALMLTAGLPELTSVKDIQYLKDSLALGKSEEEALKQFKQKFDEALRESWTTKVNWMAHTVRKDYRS
Sequence of Phosphatidylinositol 4,5-bisphosphate 3-kinase catalytic subunit alpha isoform (P42336 whole entry, canonical isoform): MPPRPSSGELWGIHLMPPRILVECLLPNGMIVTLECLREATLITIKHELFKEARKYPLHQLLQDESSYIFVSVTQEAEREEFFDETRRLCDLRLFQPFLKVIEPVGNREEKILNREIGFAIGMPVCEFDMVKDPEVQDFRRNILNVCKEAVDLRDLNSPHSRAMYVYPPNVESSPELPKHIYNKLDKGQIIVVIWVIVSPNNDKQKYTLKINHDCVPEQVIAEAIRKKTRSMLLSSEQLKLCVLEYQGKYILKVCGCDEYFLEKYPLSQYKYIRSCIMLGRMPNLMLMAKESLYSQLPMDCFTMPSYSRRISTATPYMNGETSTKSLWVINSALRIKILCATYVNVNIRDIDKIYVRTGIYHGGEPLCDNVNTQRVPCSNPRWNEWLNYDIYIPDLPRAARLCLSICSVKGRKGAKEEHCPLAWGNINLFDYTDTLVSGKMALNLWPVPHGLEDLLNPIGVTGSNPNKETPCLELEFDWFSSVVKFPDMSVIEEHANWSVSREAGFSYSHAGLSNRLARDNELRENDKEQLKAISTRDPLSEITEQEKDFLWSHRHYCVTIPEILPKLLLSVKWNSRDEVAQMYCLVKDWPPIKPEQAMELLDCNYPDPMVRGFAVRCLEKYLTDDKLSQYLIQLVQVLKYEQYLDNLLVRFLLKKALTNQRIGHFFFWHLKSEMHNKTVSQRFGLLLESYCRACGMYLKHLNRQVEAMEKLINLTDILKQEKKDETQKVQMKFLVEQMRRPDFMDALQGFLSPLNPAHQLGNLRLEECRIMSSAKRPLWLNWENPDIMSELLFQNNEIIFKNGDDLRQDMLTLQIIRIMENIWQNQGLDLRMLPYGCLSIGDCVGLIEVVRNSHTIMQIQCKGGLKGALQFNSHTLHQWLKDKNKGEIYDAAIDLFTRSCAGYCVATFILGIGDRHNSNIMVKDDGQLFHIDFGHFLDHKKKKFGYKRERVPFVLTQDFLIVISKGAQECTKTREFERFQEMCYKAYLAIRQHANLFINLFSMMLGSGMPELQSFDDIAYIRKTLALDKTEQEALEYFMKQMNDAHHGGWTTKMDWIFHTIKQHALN
Sequence of Phosphatidylinositol 4,5-bisphosphate 3-kinase catalytic subunit gamma isoform (P48736 whole entry, canonical isoform): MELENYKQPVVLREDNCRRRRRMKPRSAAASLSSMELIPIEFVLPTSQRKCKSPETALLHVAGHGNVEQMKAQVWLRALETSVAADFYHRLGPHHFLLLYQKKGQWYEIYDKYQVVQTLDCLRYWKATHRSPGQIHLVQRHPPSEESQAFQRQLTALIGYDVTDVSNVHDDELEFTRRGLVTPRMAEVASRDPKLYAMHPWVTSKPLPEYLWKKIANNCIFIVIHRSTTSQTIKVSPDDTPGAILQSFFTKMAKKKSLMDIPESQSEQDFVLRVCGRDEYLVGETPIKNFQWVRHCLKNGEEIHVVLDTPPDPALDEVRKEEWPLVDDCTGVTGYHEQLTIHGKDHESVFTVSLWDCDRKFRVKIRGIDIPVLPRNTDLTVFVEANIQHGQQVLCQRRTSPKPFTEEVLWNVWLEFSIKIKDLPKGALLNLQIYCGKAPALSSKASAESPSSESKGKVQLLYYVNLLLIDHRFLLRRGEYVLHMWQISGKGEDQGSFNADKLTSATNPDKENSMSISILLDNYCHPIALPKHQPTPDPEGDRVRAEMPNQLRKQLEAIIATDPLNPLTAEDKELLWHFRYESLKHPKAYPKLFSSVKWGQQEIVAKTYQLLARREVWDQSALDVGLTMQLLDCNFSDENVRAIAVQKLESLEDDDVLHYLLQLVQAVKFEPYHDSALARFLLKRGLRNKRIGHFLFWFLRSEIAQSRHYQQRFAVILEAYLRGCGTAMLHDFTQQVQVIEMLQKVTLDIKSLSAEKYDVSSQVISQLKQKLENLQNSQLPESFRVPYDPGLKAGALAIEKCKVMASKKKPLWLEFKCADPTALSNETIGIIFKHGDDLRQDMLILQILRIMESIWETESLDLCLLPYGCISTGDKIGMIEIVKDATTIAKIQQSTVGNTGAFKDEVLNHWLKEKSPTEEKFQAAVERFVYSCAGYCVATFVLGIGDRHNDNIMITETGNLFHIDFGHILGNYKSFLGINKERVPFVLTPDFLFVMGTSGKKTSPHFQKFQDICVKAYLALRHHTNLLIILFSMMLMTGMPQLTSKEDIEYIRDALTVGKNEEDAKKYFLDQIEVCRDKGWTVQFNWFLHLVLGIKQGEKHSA

As to `COCC(=O)NC1CCN(Cc2cc3nc(-c4cnc(N)nc4)nc(N4CCOCC4)c3s2)CC1`, the IC50 in data set [1] is 0.794 µM; in data set [2], 0.0398 µM; in data set [3], 0.0501 µM; in data set [4], 0.0631 µM. This molecule also displayed a logD in data set [5] of 2.3.
In the case of `CN(C1CCN(Cc2cc3nc(-c4cccc5[nH]ncc45)nc(N4CCOCC4)c3s2)CC1)S(C)(=O)=O`, the IC50 is 5.01 µM in data set [1], 0.0398 µM in data set [2], 0.316 µM in data set [3] and 0.794 µM in data set [4]. This molecule had a logD in data set [5] of 4.5.
For the molecule `CC(=O)NC1CCN(Cc2cc3nc(-c4cnc(N)nc4)nc(N4CCOCC4)c3s2)CC1`, the IC50 in data set [1] was 1.58 µM; in data set [2] it was 0.1 µM; in data set [3] it was 0.126 µM; in data set [4], 0.158 µM. In addition, the logD in data set [5] came to 2.2.
The like results for `CNC(=O)NC1CCCN(Cc2cc3nc(-c4cccc5[nH]ccc45)nc(N4CCOCC4)c3s2)C1` (racemic) were, in that order, 2.51 µM, 0.126 µM, 3.98 µM, 2.51 µM and 4.1.
As for `COCC(=O)NC1CCCN(Cc2cc3nc(-c4cccc5[nH]ccc45)nc(N4CCOCC4)c3s2)C1` (racemic), the IC50 in data set [1] was 6.31 µM; in data set [2] it was 0.0794 µM; in data set [3], 2.51 µM; in data set [4] it was 2 µM. This molecule also gave a logD in data set [5] of 5.
The like results for `CN(C1CCN(Cc2cc3nc(-c4cccc5[nH]ccc45)nc(N4CCOCC4)c3s2)CC1)S(C)(=O)=O` were, in that order, 1.26 µM, 0.0126 µM, 1.58 µM, 0.794 µM and 5.2.
With `COCC(=O)N(C)C1CCN(Cc2cc3nc(-c4cccc5[nH]ncc45)nc(N4CCOCC4)c3s2)C1` (racemic), the IC50 in data set [1] was 5.01 µM; in data set [2] it was 0.0794 µM; in data set [3] it was 0.631 µM; in data set [4], 1 µM. The logD in data set [5] is 3.8.
For the molecule `CC(=O)NC1CCCN(Cc2cc3nc(-c4cccc5[nH]ncc45)nc(N4CCOCC4)c3s2)C1` (racemic), the IC50 in data set [1] is 6.31 µM; in data set [2], 0.0794 µM; in data set [3], 0.251 µM; in data set [4] it was 1.26 µM. Further, the logD in data set [5] turned out to be 4.
In the case of `CC(=O)NC1CCN(Cc2cc3nc(-c4cccc5[nH]ccc45)nc(N4CCOCC4)c3s2)CC1`, the figures for the IC50 in data set [2] and in data set [3] were 0.0794 µM and 3.16 µM, respectively. Besides, the pH-dependent lipophilicity (logD) in data set [5] amounted to 4.
For `CC(=O)N[C@@H]1CCN(Cc2cc3nc(-c4cnc(N)nc4)nc(N4CCOCC4)c3s2)C1`, the IC50 in data set [1] is 2 µM; in data set [2] it was 0.158 µM; in data set [3], 0.126 µM; in data set [4], 0.126 µM. In addition, the logD in data set [5] was determined as 1.8.
For `CS(=O)(=O)NC1CCN(Cc2cc3nc(-c4cnc(N)nc4)nc(N4CCOCC4)c3s2)CC1`, the 50% inhibitory concentration (IC50) in data set [1] is 0.398 µM; in data set [2], 0.0251 µM; in data set [3], 0.0316 µM; in data set [4], 0.0631 µM. The molecule also returned a logD in data set [5] of 2.4.
Take `CN(C1CCN(Cc2cc3nc(-c4cccc5[nH]ccc45)nc(N4CCOCC4)c3s2)C1)S(C)(=O)=O` (racemic): the IC50 was 0.501 µM in data set [1], 0.01 µM in data set [2], 0.631 µM in data set [3] and 0.501 µM in data set [4]. In addition, in data set [5], the logD is 5.1.
Take `CC(=O)N(C)C1CCCN(Cc2cc3nc(-c4cccc5[nH]ncc45)nc(N4CCOCC4)c3s2)C1` (racemic): the IC50 in data set [1] was 2 µM; in data set [2] it was 0.0398 µM; in data set [3], 0.251 µM; in data set [4], 0.501 µM. Besides, the logD in data set [5] stood at 4.5.
Turning to `CNC(=O)NC1CCCN(Cc2cc3nc(-c4cccc5[nH]ncc45)nc(N4CCOCC4)c3s2)C1` (racemic), the IC50 in data set [1] was 7.94 µM; in data set [2] it was 0.1 µM; in data set [3], 0.316 µM; in data set [4], 3.16 µM. Also, in data set [5], the logD turned out to be 3.6.
Take `CC(=O)NC1CCCN(Cc2cc3nc(-c4cccc5[nH]ccc45)nc(N4CCOCC4)c3s2)C1` (racemic): the IC50 was 2.51 µM in data set [1], 0.0501 µM in data set [2], 3.98 µM in data set [3] and 2.51 µM in data set [4]. The same molecule had a logD in data set [5] of 4.5.
On to `CC(=O)N(C)C1CCN(Cc2cc3nc(-c4cnc(N)nc4)nc(N4CCOCC4)c3s2)CC1`, for which the IC50 in data set [1] was 0.398 µM; in data set [2], 0.00631 µM; in data set [3] it was 0.0398 µM; in data set [4], 0.0398 µM. The molecule further had a logD in data set [5] of 2.8.
Turning to `COCC(=O)NC1CCN(Cc2cc3nc(-c4cccc5[nH]ncc45)nc(N4CCOCC4)c3s2)CC1`, the IC50 in data set [1] was 3.98 µM; in data set [2], 0.126 µM; in data set [3] it was 0.398 µM. The same molecule yielded a logD in data set [5] of 3.9.
For `CS(=O)(=O)NC1CCCN(Cc2cc3nc(-c4cccc5[nH]ccc45)nc(N4CCOCC4)c3s2)C1` (racemic), the IC50 was 1.26 µM in data set [1], 0.0251 µM in data set [2], 1.58 µM in data set [3] and 1 µM in data set [4]. This molecule also returned a logD in data set [5] of 5.
Consider `CS(=O)(=O)NC1CCN(Cc2cc3nc(-c4cccc5[nH]ncc45)nc(N4CCOCC4)c3s2)C1` (racemic), for which the 50% inhibitory concentration (IC50) is 3.16 µM in data set [1], 0.0631 µM in data set [2], 0.251 µM in data set [3] and 1.26 µM in data set [4]. Also, the logD in data set [5] came to 3.5.
For `CNC(=O)NC1CCN(Cc2cc3nc(-c4cnc(N)nc4)nc(N4CCOCC4)c3s2)C1` (racemic), the IC50 is 1 µM in data set [1], 0.158 µM in data set [2], 0.0631 µM in data set [3] and 0.158 µM in data set [4]. This molecule also had a logD in data set [5] of 1.7.
Turning to `CNC(=O)NC1CCN(Cc2cc3nc(-c4cccc5[nH]ccc45)nc(N4CCOCC4)c3s2)C1` (racemic), the IC50 in data set [1] is 2 µM; in data set [2], 0.126 µM; in data set [3], 3.16 µM; in data set [4] it was 3.98 µM. In data set [5], this molecule registered a logD of 3.4.
Turning to `CS(=O)(=O)NC1CCCN(Cc2cc3nc(-c4cnc(N)nc4)nc(N4CCOCC4)c3s2)C1` (racemic), the IC50 in data set [1] was 0.316 µM; in data set [2], 0.0158 µM; in data set [3], 0.02 µM; in data set [4], 0.0398 µM. In addition, the logD in data set [5] was found to be 3.1.
As to `CC(=O)N(C)C1CCN(Cc2cc3nc(-c4cccc5[nH]ncc45)nc(N4CCOCC4)c3s2)C1` (racemic), the IC50 is 1 µM in data set [1], 0.02 µM in data set [2], 0.2 µM in data set [3] and 1 µM in data set [4]. In addition, the logD in data set [5] was 3.6.
For `CS(=O)(=O)NC1CCCN(Cc2cc3nc(-c4cccc5[nH]ncc45)nc(N4CCOCC4)c3s2)C1` (racemic), the IC50 in data set [1] is 7.94 µM; in data set [2], 0.0501 µM; in data set [3], 0.501 µM; in data set [4] it was 1.58 µM. In data set [5], this molecule displayed a logD of 4.3.
Consider `CNC(=O)NC1CCN(Cc2cc3nc(-c4cccc5[nH]ncc45)nc(N4CCOCC4)c3s2)CC1`, for which the results for the IC50 in data set [1], in data set [2] and in data set [3] were 3.16 µM, 0.1 µM and 0.251 µM, respectively. In data set [5], this molecule registered a logD of 3.1.
The like results for `CNC(=O)NC1CCN(Cc2cc3nc(-c4cccc5[nH]ccc45)nc(N4CCOCC4)c3s2)CC1` were, in that order, 2.51 µM, 0.158 µM, 3.98 µM and 3.6.
As to `CNC(=O)N(C)C1CCN(Cc2cc3nc(-c4cccc5[nH]ncc45)nc(N4CCOCC4)c3s2)C1` (racemic), the IC50 in data set [1] was 1.58 µM; in data set [2], 0.0631 µM; in data set [3], 0.794 µM; in data set [4], 1.58 µM.
In data set [2], `COCC(=O)NC1CCN(Cc2cc3nc(-c4cccc5[nH]ccc45)nc(N4CCOCC4)c3s2)CC1` gave an IC50 of 0.0794 µM. The logD in data set [5] is 4.3.
On to `CC(=O)NC1CCN(Cc2cc3nc(-c4cccc5[nH]ncc45)nc(N4CCOCC4)c3s2)CC1`, for which the IC50 is 6.31 µM in data set [1], 0.2 µM in data set [2] and 0.631 µM in data set [3]. The logD in data set [5] is 3.2.
On to `COCC(=O)N(C)C1CCN(Cc2cc3nc(-c4cccc5[nH]ncc45)nc(N4CCOCC4)c3s2)CC1`, for which the IC50 was 1.58 µM in data set [1], 0.0251 µM in data set [2] and 0.501 µM in data set [3]. Also, the logD in data set [5] stood at 3.8.

The values above are taken from ChEMBL document CHEMBL4414631 (J Med Chem, 2019).
